Assay results taken from US5891882A, “Benzopyranopyrrole and benzopyranopyridine α-1 adenergic compounds” (priority 1997, dated 1999).
Counter-ions that a name gives are not always drawn.

Assays:
[1] = target: T1, α-1B adrenoreceptor (rat spleen) (Rattus norvegicus, UniProt P15823); experiment: Functional antagonism: inhibition of phenylephrine-induced contraction of rat spleen; assay type: cell-based
T1 construct: from tissue; host or cells: rat spleen
T1 sequence (P15823 1-515): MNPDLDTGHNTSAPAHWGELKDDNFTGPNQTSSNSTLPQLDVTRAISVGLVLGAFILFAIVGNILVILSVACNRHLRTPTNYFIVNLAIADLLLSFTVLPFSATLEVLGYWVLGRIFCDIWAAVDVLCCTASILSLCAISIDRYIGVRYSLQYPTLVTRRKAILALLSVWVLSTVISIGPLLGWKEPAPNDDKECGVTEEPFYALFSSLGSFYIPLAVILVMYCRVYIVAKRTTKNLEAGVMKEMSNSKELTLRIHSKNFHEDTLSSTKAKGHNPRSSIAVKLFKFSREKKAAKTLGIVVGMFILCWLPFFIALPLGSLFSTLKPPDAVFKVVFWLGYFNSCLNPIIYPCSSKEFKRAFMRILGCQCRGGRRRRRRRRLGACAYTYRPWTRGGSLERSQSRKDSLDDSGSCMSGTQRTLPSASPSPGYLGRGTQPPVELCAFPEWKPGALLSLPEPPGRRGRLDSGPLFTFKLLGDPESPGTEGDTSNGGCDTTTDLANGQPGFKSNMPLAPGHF
Description: (§1) Functional assays indicative of pharmacologically defined α-1 adrenoreceptors were used to further characterize compounds. Inhibition of phenylephrine (PE)-induced contraction of canine prostate smooth muscle can be correlated with α-1A adrenoreceptor activation. […] For each of these models, agonist dose response curves were repeated against increasing concentrations of test agent to derive a Schild plot [log ([…]) against log (molarity of test agent)] to determine the pA2.

[2] = target: T2, α-1A adrenoreceptor (rat vas deferens) (Rattus norvegicus, UniProt P43140); experiment: Functional antagonism: inhibition of phenylephrine-induced contraction of rat vas deferens; assay type: cell-based
T2 construct: from tissue; host or cells: rat vas deferens
T2 sequence (P43140 1-466): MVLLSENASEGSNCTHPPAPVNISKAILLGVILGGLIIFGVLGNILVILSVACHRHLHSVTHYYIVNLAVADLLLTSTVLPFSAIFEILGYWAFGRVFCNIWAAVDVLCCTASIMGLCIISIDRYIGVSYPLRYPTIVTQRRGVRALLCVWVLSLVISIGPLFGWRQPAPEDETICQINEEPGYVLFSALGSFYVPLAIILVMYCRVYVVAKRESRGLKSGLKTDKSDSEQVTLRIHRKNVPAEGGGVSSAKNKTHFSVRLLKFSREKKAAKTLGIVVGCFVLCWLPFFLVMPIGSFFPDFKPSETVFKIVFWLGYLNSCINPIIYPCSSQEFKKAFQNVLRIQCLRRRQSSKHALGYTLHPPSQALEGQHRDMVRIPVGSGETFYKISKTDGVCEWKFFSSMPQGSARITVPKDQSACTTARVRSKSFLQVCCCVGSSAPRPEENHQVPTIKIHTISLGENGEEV
Description: as §1

In Vitro Characterization (pA2) Rat Spleen ([1]; rat spleen, phenylephrine-induced contraction, Schild plot)	In Vitro Characterization (pA2) Rat Vas ([2]; rat vas deferens, phenylephrine-induced contraction, Schild plot)	SMILES	Kb [1] [nM]	Kb [2] [nM]
		COc1cccc2c1[C@@H]1CCN(CCCCn3c(=O)[nH]c4c(sc5ccccc54)c3=O)C[C@H]1CO2 (relative stereo) [Example 87, 3-[4-((±)-trans-10-Methoxy-1,3,4,4a,5,10b-hexahydro-2H-[1]-benzopyrano[3,4-c]pyrido-3-yl)butyl]-[1]-benzthieno[3,2-d]pyrimidine-2,4(1H,3H)-dione hydrochloride]	72.4	2.14
7.83	9.02	COc1ccc2c(n1)sc1c(=O)n(CCCCN3C[C@@H]4COc5cccc(OC)c5[C@@H]4C3)c(=O)[nH]c12 [Example 33, hydrochloride]		
		COc1cccc2c1[C@@H]1CCN(CCCCn3c(=O)[nH]c4c(sc5cccnc54)c3=O)C[C@H]1CO2 (relative stereo) [Example 88, 3-[4-((±)-trans-10-Methoxy-1,3,4,4a,5,10b-hexahydro-2H-[1]-benzopyrano[3,4-c]pyrido-3-yl)butyl]-pyrido[2',3':4,5]thieno[3,2-d]pyrimidine-2,4(1H,3H)-dione hydrochloride]	72.4	1.82
